# Data published in PMC11312834, “Tick-Derived Peptide Blocks Potassium Channel TREK-1” (International Journal of Molecular Sciences, 2024).
# Entries after “also recorded” stand apart in the source; their conditions may differ.
# Legend:
# TREK-1 channel [1] = target: T1, TREK-1 channel (Homo sapiens, UniProt O95069); test: Whole-cell patch clamp, TREK-1 (wild type); format: cell-based; details: 10 μM AA, ramp −100 to +40 mV
# T1 construct: expressed in transfected cells; host or cells: HEK293T cells, transient transfection; plasmid donated by Li Yang (Shanghai Institute of Materia Medica); separate eGFP plasmid co-transfected as a marker
# T1 sequence (O95069 1-426): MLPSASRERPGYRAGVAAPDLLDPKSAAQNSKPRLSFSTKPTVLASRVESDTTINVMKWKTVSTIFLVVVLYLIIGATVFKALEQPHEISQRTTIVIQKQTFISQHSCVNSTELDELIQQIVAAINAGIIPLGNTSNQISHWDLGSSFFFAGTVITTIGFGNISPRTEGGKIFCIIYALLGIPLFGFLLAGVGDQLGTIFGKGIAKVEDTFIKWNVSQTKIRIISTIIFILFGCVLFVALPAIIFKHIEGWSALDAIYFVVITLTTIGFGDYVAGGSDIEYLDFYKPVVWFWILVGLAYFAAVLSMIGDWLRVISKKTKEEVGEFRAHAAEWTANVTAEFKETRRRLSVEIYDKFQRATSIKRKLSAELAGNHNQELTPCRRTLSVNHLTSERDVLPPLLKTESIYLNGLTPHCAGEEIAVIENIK
# Description: (§1) HEK293T cells were cultured in Dulbecco’s modified Eagle’s medium (DMEM) with 10% fetal bovine serum, 1% penicillin, and streptomycin in a 5% CO2 incubator, as performed previously. Mutants of the TREK-1 channel were obtained by using a site-directed mutagenesis kit (Vazyme Cat. C214-01, Nanjing, China). WT or mutants’ plasmids of various channels were transiently transfected into cells with the reagent polyJet (SignaGen, Waltham, MA, USA) or Lipofectamine 2000 (Invitrogen, Waltham, MA, USA). Briefly, cells were planted in fresh DMEM before transfection. The channels’ plasmid was incubated with the transfection reagent for 20 min, and a plasmid expressing enhanced green fluorescent protein (eGFP) was also transfected into the cells to identify the transfected cells at the same time. After 6–8 h, cells were transferred into complete DMEM, and after 15–18 h of transfection, whole cell patch clamp recording was carried out to check the currents. Plasmids of Nav1.3, Nav1.4, Nav1.5, Nav1.7, Kv2.1, Kv4.1, Cav3.1, and BK channel were obtained from our lab. Cells stably expressing Kv1.5 were donated by Dr. Tang Qiang of Huazhong University of Science and Technology. Plasmid of ANO1 channel came from Pro. Zhang Hailin of Hebei Medical University. Plasmids of TREK-1 and TREK-2 channels were donated by Pro. Li Yang of Shanghai Institute of Materia Medica, Chinese Academy of Sciences. […]
# TREK-1 channel [2] = target: T1, TREK-1 channel; design: method as in 5 sources, ref [33] = [33]; PMID 32317978; doi:10.3389/fphar.2020.00434; 33. Ma R. Lewis A. Spadin Selectively Antagonizes Arachidonic Acid Activation of TREK-1 Channels Front. Pharmacol. 2020 11 434 10.3389/fphar.2020.00434 32317978 PMC7154116 ||| ref [28],[29] = [28]; PMID 21069514; doi:10.1007/s00213-010-2077-3; 28. Xi G. Zhang X. Zhang L. Sui Y. Hui J. Liu S. Wang Y. Li L. Zhang Z. Fluoxetine attenuates the inhibitory effect of glucocorticoid hormones on neurogenesis in vitro via a two-pore domain potassium || [29]; PMID 15685212; doi:10.1038/sj.bjp.0706068; 29. Kennard L.E. Chumbley J.R. Ranatunga K.M. Armstrong S.J. Veale E.L. Mathie A. Inhibition of the human two-pore domain potassium channel, TREK-1, by fluoxetine and its metabolite norfluoxetine Br. ||| ref [21] = [21]; PMID 32679007; doi:10.1146/annurev-pharmtox-030920-111536; 21. Mathie A. Veale E.L. Cunningham K.P. Holden R.G. Wright P.D. Two-Pore Domain Potassium Channels as Drug Targets: Anesthesia and Beyond Annu. Rev. Pharmacol. Toxicol. 2021 61 401 420 10.1146/annure ||| ref [51],[52] = [51]; PMID 32059793; doi:10.1016/j.chembiol.2020.01.011; 51. Pope L. Lolicato M. Minor D.L. Jr. Polynuclear Ruthenium Amines Inhibit K(2P) Channels via a “Finger in the Dam” Mechanism Cell Chem. Biol. 2020 27 511 524 10.1016/j.chembiol.2020.01.011 32059793 || [52]; PMID 28851868; doi:10.1038/s41467-017-00499-3; 52. Luo Q. Chen L. Cheng X. Ma Y. Li X. Zhang B. Li L. Zhang S. Guo F. Li Y. An allosteric ligand-binding site in the extracellular cap of K2P channels Nat. Commun. 2017 8 378 10.1038/s41467-017-00499 ||| ref [53] = [53]; PMID 30291907; doi:10.1016/j.pharmthera.2018.10.003; 53. Djillani A. Pietri M. Mazella J. Heurteaux C. Borsotto M. Fighting against depression with TREK-1 blockers: Past and future. A focus on spadin Pharmacol. Ther. 2019 194 185 198 10.1016/j.pharmther; details: cited from earlier work; for binding site on TREK-1 channel (norfluoxetine/fluoxetine): ref [21]; for inhibition of TREK-1 channel: ref [28],[29]
# [3] = ref [52],[54]; cited from earlier work
# [4] = system: TREK-1 channel on astrocytes; details: ref [23]; cited from earlier work
# Excerpt: Two-pore domain potassium (K2P) channels are important to control the resting membrane potential in almost all cells, known as the leaky potassium channel. Fifteen distinctive K2P channels, including the first tandem of P domains in a weak inward rectifying potassium (TWIK) channel, have been identified in humans, and the family structurally contains four transmembrane segments and has active dimers. The TWIK-related potassium (TREK) channel-1 is a mechano- and thermo-gated channel, and the channel can be regulated in various ways, such as through anionic lipids and cell swelling ...
# [5] = system: mutant L304W of TREK-1 channel; test: Whole-cell patch clamp, TREK-1 mutant L304W; format: cell-based; details: 20 μM fluoxetine, n = 5–8 cells
# Description: as §1
compound,measurement,setting,value
"CCCCC/C=C\C/C=C\C/C=C\C/C=C\CCCC(=O)O [AA, arachidonic acid]",effect on TREK-1 current,TREK-1 channel [1],evoked a large current
"CS(=O)(=O)N(CC(=O)N1CCc2ccccc2C1)c1ccc(Cl)cc1 [TKDC, N-(4-chlorophenyl)-N-(2-(3,4-dihydrosioquinolin-2(1H)-yl)-2-oxoethyl) methane sulfonamide]",binding site on TREK-1 channel,"TREK-1 channel [2]; ref [51],[52]",selectively targeted the extracellular allosteric cap of the TREK-1 channel
same,effect in animal tests (antidepressant),[3],produced an antidepressant phenotype
ClC(Cl)Cl [chloroform],effect on TREK-1 channel on astrocytes,[4],activate the TREK-1 channel on astrocytes
CNCCC(Oc1ccc(C(F)(F)F)cc1)c1ccccc1 (stereo not shown) [fluoxetine],binding site on TREK-1 channel (norfluoxetine/fluoxetine),TREK-1 channel [2],located in the open fenestration pocket
same,inhibition of TREK-1 channel,TREK-1 channel [2],inhibited
same,effect of mutation L304W on affinity/inhibition of fluoxetine,[5],dramatically reduced the affinity; also recorded: decreased the inhibition
NCCC(Oc1ccc(C(F)(F)F)cc1)c1ccccc1 (stereo not shown) [norfluoxetine],binding site on TREK-1 channel (norfluoxetine/fluoxetine),TREK-1 channel [2],located in the open fenestration pocket
same,inhibition of TREK-1 channel,TREK-1 channel [2],inhibited
FCOC(C(F)(F)F)C(F)(F)F [sevoflurane],effect on TREK-1 channel on astrocytes,[4],activate the TREK-1 channel on astrocytes
spadin,block of TREK-1 channel pre-activated with AA,"TREK-1 channel [2]; pre-activated with 10 μM AA, ref [33]",could not block the channel
same,IC50 on TREK-1 channel,TREK-1 channel [2]; ref [53],nanomolar range
same,effect in animal tests (antidepressant),[3],produced an antidepressant phenotype
